One may read the IC50 as the concentration at which inhibition is half-maximal. The low end stands for greater potency in that assay, the high end for weaker potency in that assay.

One series relates to liver cell line Pre-S2. Kind of series: Toxicity to liver cells, Pre-S2 cell line. The class given is cell-based.
Series [1] has as its system hepatitis B virus. The series can be described thus: HBsAg in blood serum of AdHBV-infected mice. Type of series: in vivo. Particulars: intravenous, 20 mg/ml, FIG. 4a. As to the method: Intravenous injection of […] and Pifithrin-μ can successfully reduce the hepatitis B surface antigen (HBsAg) in the blood serum of mice, wherein the mice are continuously infected by hepatitis B virus in an adenovirus genome transfer technology (AdHBV). Each group has three mice. The experiment design is as follows: inject AdHBV into mice continuously for 28 days; respectively inject a mock medication, 20 mg/ml […], and 20 mg/ml Pifithrin-μ into the mice intravenously; collect the samples of the blood serum and livers for serological and pathological analyses.

A short description of series [2]: Liver function test (GPT) in mice. Type of series: in vivo. As to conditions: FIG. 4b. An excerpt:
GPT (Glutamate Pyruvate Transaminase) is used to monitor the liver function of the mice.

The test system of a further series is liver cell line WT. The series can be described thus: Toxicity to liver cells, WT cell line.
A further series relates to liver cell line SNAP. Kind of series: Toxicity to liver cells, SNAP cell line.
The subject of series [3] is hepatitis B virus. The series can be described thus: HBsAg-positive liver cells in liver sections of mice. Particulars: month-long treatment, FIG. 5b.
In series [4] the test system is LHBs-positive cells (SNAP cells 505) expressing HBV-LHBs. Kind of series: Selective cytotoxicity in co-culture, LHBs-positive cells. Type of series: cell-based. Particulars: 40 μM. As to the method: With elapse of time, use a microscope to observe the selective cytotoxicity of VER-155008 to the cells expressing HBV-LHBs (hepatitis B virus large S protein). The LHBs-positive cells (SNAP cells 505) are labeled by green fluorescence and co-cultured with unlabeled parental NeHepLxHT. The group of the mixed cells is processed with 40 μM VER-155008 and then periodically recorded at time points separated by a longer interval of time for 48 hours. The observed cellular quantities of the unlabeled cells (parental cells) and the green-labeled cells (LHBs-infected cells) are used to reveal typical cellular apoptosis.

For a further series, the system named is parental NeHepLxHT. Kind of series: Selective cytotoxicity in co-culture, parental cells. The class given is cell-based. Particulars: 40 μM, 24 hours, FIG. 3b. As to the method: […]. The LHBs-positive cells (SNAP cells 505) are labeled by green fluorescence and co-cultured with unlabeled parental NeHepLxHT. The group of the mixed cells is processed with 40 μM VER-155008 and then periodically recorded at time points separated by a longer interval of time for 48 hours. The observed cellular quantities of the unlabeled cells (parental cells) and the green-labeled cells (LHBs-infected cells) are used to reveal typical cellular apoptosis. […].

The next series has as its target HSP90 (Homo sapiens, UniProt P08238). As to conditions: selectivity over HSP90; cited from earlier work.

Chain of HSP90 (P08238 whole entry, species assumed): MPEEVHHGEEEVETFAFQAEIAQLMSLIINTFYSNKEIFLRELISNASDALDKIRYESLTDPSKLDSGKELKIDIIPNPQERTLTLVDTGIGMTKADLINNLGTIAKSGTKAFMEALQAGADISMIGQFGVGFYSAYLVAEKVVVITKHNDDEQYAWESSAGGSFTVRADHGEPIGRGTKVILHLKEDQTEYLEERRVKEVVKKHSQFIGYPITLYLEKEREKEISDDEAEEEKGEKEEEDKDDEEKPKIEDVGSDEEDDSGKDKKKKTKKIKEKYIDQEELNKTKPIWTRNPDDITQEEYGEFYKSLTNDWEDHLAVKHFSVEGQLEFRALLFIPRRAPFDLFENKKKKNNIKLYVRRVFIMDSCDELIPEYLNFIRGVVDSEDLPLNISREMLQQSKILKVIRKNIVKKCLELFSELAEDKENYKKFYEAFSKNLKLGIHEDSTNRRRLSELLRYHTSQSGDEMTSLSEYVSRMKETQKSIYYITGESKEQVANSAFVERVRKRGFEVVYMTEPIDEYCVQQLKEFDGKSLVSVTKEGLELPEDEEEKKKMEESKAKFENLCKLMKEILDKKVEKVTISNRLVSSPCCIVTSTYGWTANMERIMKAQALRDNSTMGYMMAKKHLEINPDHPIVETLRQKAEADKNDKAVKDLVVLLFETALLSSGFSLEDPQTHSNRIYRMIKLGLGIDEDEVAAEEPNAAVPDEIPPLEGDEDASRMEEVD

In the case of `NS(=O)(=O)C#Cc1ccccc1` [Pifithrin-μ, 2-Phenylethynesulfonamide], the figures for the IC50 in the series on liver cell line Pre-S2, in the series on liver cell line WT and in the series with liver cell line SNAP were 11.8 µM, 12.2 µM and 17.5 µM, respectively. In addition, in the series on hepatitis B virus [1], the “levels of HBsAg in the blood serums” value is “obviously reduced”. Further, in series [2], the “levels of GPT in the blood serums” value is recorded as “do not vary obviously”. Also, the HBcAg-positive liver cells result with hepatitis B virus [3] (high dosage (40 mg/Kg)) is on record as “kill a portion of the HBcAg-positive liver cells”.
For `N#Cc1ccc(COC[C@H]2O[C@@H](n3c(NCc4ccc(Cl)c(Cl)c4)nc4c(N)ncnc43)[C@H](O)[C@@H]2O)cc1` [VER-155008, 5′-O-[(4-Cyanophenyl)methyl]-8-[[(3,4-dichlorophenyl)methyl]amino]-adenosine], the IC50 in the series with liver cell line Pre-S2 came to 18.8 µM; with liver cell line WT it was 18 µM; with liver cell line SNAP, 36.2 µM. Also, the “death of LHBs-positive cells” value in series [4] (24 hours, FIG. 3b) was “many of the LHBs-positive cells are dead”. Further, the “death of LHBs-infected cells” value in [4] (48 hours, FIG. 3c) is given as “almost all die”. In addition, the “survival of parental cells” value with parental NeHepLxHT is given as “still alive”. For the same molecule, the “levels of HBsAg in the blood serums” value in the series with hepatitis B virus [1] is listed as “obviously reduced”. In addition, the “levels of GPT in the blood serums” value in series [2] was “do not vary obviously”. Moreover, at HSP90, the “effect to HSP70 and GRP78 relative to effect to HSP90” value is listed as “over 100 times”. In addition, the HBsAg-positive liver cells entry in the series with hepatitis B virus [3] (low dosage (20 mg/Kg) and high dosage (40 mg/Kg)) is “different effects in decreasing the HBsAg-positive liver cells”.

The values above are taken from patent publication US9687499B2, “Method using heat shock protein inhibitor for treating hepatitis and hepatoma” (National Tsing Hua University, priority 2014, dated 2017).
